Type in all cases: cell-based
Details in all cases: three days

The subject of one test is Panc-1. Description: Cytostatic activity, EZ4U test, pancreas carcinoma cell line Panc-1. As for the experimental part: (§1) Cell lines of a colon carcinoma and a pancreas carcinoma, such as Capan-1, DLD-1, HT 29, HCT-8, MLA-PA-CA2, PANCI, BXPC-3, ASPC-1, and HT-29, were examined. The tested cancer cell lines were stored in liquid nitrogen. After defrosting, the cancer cells were cultivated in culture flasks with RPMI-1640+glutamine medium (Gibco® No. 5240025) at 37° C./5% CO2 atmosphere for up to 14 days so that a monolayer of cells was able to form. Thereupon, the cells were harvested with trypsin+EDTA (Gibco® No. 15400-054) and washed twice with an RPMI-medium.
(§2) Apart from poly-[2-(2-ethoxyethoxyethyl)guanidinium hydrochloride], the chemotherapeutic agents cisplatin, epirubicin, mitomycin C and 5-fluorouracil were tested by way of comparison. Therefor, the compounds were at first dissolved according to the respective instructions of the manufacturer and were then stored as a stock solution in aliquots of 1 ml each (concentration of drug substance: 1000 μg/ml) in liquid nitrogen at −180° C. The dissolved substances were used on the very same day.
(§3) In order to determine the cytotoxic activity of the substances, the cancer cells were transferred from the culture flasks with an RPMI-washed suspension at a concentration of 20,000 cells in 200 μl onto microtiter plates. In the presence of varying concentrations of the test substances, the cancer cells were subsequently incubated for three days at a temperature of 37° C. and in an atmosphere of 5% CO2. For the poly-[2-(2-ethoxyethoxyethyl)guanidinium hydrochloride], concentrations of 0.12 to 500 μg/ml (factor 2 dilutions) were used in all test arrangements. After three days of incubation, the evaluation was carried out by means of the nonradioactive cell proliferation and cytotoxicity test EZ4U (Biomedica No. BI-5000 10×96 determinations). After three hours of incubation with EZ4U, the evaluation was carried out photometrically in percent at a wavelength of […] in a slidephotometer (extinction of the test sample divided by extinction of the control-sample blank value).

The test system of the next test is BxPc-3. Description: Cytostatic activity, EZ4U test, pancreas carcinoma cell line BxPc-3. As for the experimental part:
as §1, §2, §3

For a further test, the system named is AsPc-1. Description: Cytostatic activity, EZ4U test, pancreas carcinoma cell line AsPc-1. As for the experimental part:
as §1, §2, §3

The next test relates to Capan-1. The test is described as follows: Cytostatic activity, EZ4U test, pancreas carcinoma cell line Capan-1. As for the experimental part:
as §1, §2, §3

The structures appear in SMILES notation.

As for `O=c1[nH]cc(F)c(=O)[nH]1` [5-Fluorouracil], the vitality in % in the test on Panc-1 (0.6 μg/ml) stood at 80%; in the test on Panc-1 (6 μg/ml), 77%; in the test with Panc-1 (60 μg/ml), 62%; in the test with BxPc-3 (0.6 μg/ml), 86%; in the test on BxPc-3 (6 μg/ml), 79%; with BxPc-3 (60 μg/ml), 67%. Moreover, the vitality in % with AsPc-1 (0.6 μg/ml) is 92%; with AsPc-1 (6 μg/ml), 88%; in the test on AsPc-1 (60 μg/ml), 71%; in the test on Capan-1 (0.6 μg/ml) it was 46%; with Capan-1 (6 μg/ml) it was 38%; in the test with Capan-1 (60 μg/ml), 23%.
Take `N.N.[Cl][Pt][Cl]` [Cisplatin]: the vitality in % with BxPc-3 (0.025 μg/ml) is recorded as 87%; with BxPc-3 (0.25 μg/ml) it was 65%; in the test with BxPc-3 (2.5 μg/ml) it was 93%; in the test on AsPc-1 (0.025 μg/ml), 85%; in the test with AsPc-1 (0.25 μg/ml), 89%; in the test with AsPc-1 (2.5 μg/ml) it was 53%. Further, the vitality in % with Capan-1 (0.025 μg/ml) worked out at 94%; in the test on Capan-1 (0.25 μg/ml), 54%; in the test with Capan-1 (2.5 μg/ml) it was 36%.

These data come from US8198333B2, “Cytostatic drug composition” (Geopharma Produktions GmbH, priority 2004, dated 2012).
